“And” between values parts separate entries of the source, which are not always exact repeats. Equal values may be shown once.
Tested on: KRAS PDC multicell spheroid viability
Assay: Anticancer human tumor 825966-067-R-J1-PDC patient-derived colon carcinoma cell line growth inhibition [KRAS2]
Conditions: for viability, T/C: stronger effect = lower value
In short: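 Combination screen of spheroid viability in tumor-cell co-cultures with endothelial (HUVEC) and mesenchymal stem cell stroma. Each agent was tested in half-log dilutions, topping at clinical Cmax or at 10 microM without a known Cmax.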

[1] = curve of first compound, second compound 0.1 µM
[2] = curve of first compound, second compound 0.316 µM
[3] = curve of first compound, second compound 1 µM
[4] = curve of first compound, second compound 3.16 µM
[5] = second compound 0.1 µM, first compound 0.0316 µM
[6] = second compound 0.1 µM, first compound 0.1 µM
[7] = second compound 0.1 µM, first compound 0.316 µM
[8] = second compound 0.1 µM, first compound 1 µM
[9] = second compound 0.1 µM, first compound 3.16 µM
[10] = second compound 0.1 µM, first compound 10 µM
[11] = second compound 0.316 µM, first compound 0.0316 µM
[12] = second compound 0.316 µM, first compound 0.1 µM
[13] = second compound 0.316 µM, first compound 0.316 µM
[14] = second compound 0.316 µM, first compound 1 µM
[15] = second compound 0.316 µM, first compound 3.16 µM
[16] = second compound 0.316 µM, first compound 10 µM
[17] = second compound 1 µM, first compound 0.0316 µM
[18] = second compound 1 µM, first compound 0.1 µM
[19] = second compound 1 µM, first compound 0.316 µM
[20] = second compound 1 µM, first compound 1 µM
[21] = second compound 1 µM, first compound 3.16 µM
[22] = second compound 1 µM, first compound 10 µM
[23] = second compound 3.16 µM, first compound 0.0316 µM
[24] = second compound 3.16 µM, first compound 0.1 µM
[25] = second compound 3.16 µM, first compound 0.316 µM
[26] = second compound 3.16 µM, first compound 1 µM
[27] = second compound 3.16 µM, first compound 3.16 µM
[28] = second compound 3.16 µM, first compound 10 µM
[29] = curve of first compound, second compound 10 µM
[30] = second compound 10 µM, first compound 0.0316 µM
[31] = second compound 10 µM, first compound 0.1 µM
[32] = second compound 10 µM, first compound 0.316 µM
[33] = second compound 10 µM, first compound 1 µM
[34] = second compound 10 µM, first compound 3.16 µM
[35] = second compound 10 µM, first compound 10 µM
[36] = second compound 0.1 µM, first compound 0.01 µM
[37] = second compound 0.316 µM, first compound 0.01 µM
[38] = second compound 1 µM, first compound 0.01 µM
[39] = second compound 3.16 µM, first compound 0.01 µM
[40] = second compound 10 µM, first compound 0.01 µM
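Also: spheroids exposed to compounds for 7 days.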
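For viability, T/C in this document: 100% = DMSO vehicle control viability.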

Row | SMILES | IC50 [1] [µM] | IC50 [2] [µM] | IC50 [3] [µM] | IC50 [4] [µM] | viability, T/C [5] [%] | viability, T/C [6] [%] | viability, T/C [7] [%] | viability, T/C [8] [%] | viability, T/C [11] [%] | viability, T/C [12] [%] | viability, T/C [13] [%] | viability, T/C [14] [%] | viability, T/C [17] [%] | viability, T/C [18] [%] | viability, T/C [19] [%] | viability, T/C [20] [%] | viability, T/C [23] [%] | viability, T/C [24] [%] | viability, T/C [25] [%] | viability, T/C [26] [%] | other results
1 | O=C(c1cc(Cc2n[nH]c(=O)c3ccccc23)ccc1F)N1CCN(C(=O)C2CC2)CC1 + C=CC(=O)N1CCN(c2nc(OCC3CCCN3C)nc3c2CCN(c2cccc4cccc(C)c24)C3)CC1CC#N | > 10 | > 10 | > 10 | > 10 | 98.7 | 100 | 91.8 | 92.3 | 94.7 | 91.2 | 104 | 94.1 | 87.1 | 94.8 | 91 | 93.2 | 96.3 | 108 | 111 | 110 | IC50 (curve of first compound, second compound 0.0316 µM): > 10 µM; viability, T/C (second compound 0.0316 µM, first compound 0.0316 µM): 100%; viability, T/C (second compound 0.0316 µM, first compound 0.1 µM): 119%; viability, T/C (second compound 0.0316 µM, first compound 0.316 µM): 96.8%; viability, T/C (second compound 0.0316 µM, first compound 1 µM): 77.1%; viability, T/C (second compound 0.0316 µM, first compound 3.16 µM): 98.4%; viability, T/C (second compound 0.0316 µM, first compound 10 µM): 80.2%; viability, T/C [9]: 109%; viability, T/C [10]: 95.4%; viability, T/C [15]: 96.2%; viability, T/C [16]: 97.9%; viability, T/C [21]: 99.6%; viability, T/C [22]: 125%; viability, T/C [27]: 123%; viability, T/C [28]: 109%
2 | CC1OCC2(CCN(c3cnc(Sc4ccnc(N)c4Cl)c(N)n3)CC2)C1N (stereo unspecified) + CNCc1ccccc1-c1csc(C(C)Nc2nc(C)nc3cc(OC)c(OC)cc23)c1 | 7.62 | 6.9 | 6.71 | 1.14 | 109 | 107 | 101 | 94.3 | 84.8 | 107 | 107 | 88 | 113 | 99.9 | 94.4 | 96.4 | 96.4 | 36.9 | 92.7 | 30 | IC50 [29]: < 0.0316 µM; viability, T/C [9]: 101%; viability, T/C [10]: 34.4%; viability, T/C [15]: 105%; viability, T/C [16]: 26.8%; viability, T/C [21]: 109%; viability, T/C [22]: 22.1%; viability, T/C [27]: 49.9%; viability, T/C [28]: 0.35%; viability, T/C [30]: 0.28%; viability, T/C [31]: 0.27%; viability, T/C [32]: 0.35%; viability, T/C [33]: 0.24%; viability, T/C [34]: 0.22%; viability, T/C [35]: 0.25%
3 | CC(=O)Nc1cccc(-n2c(=O)n(C3CC3)c(=O)c3c(Nc4ccc(I)cc4F)n(C)c(=O)c(C)c32)c1 |  |  |  |  |  |  |  |  |  |  |  |  |  |  |  |  |  |  |  |  | viability, T/C (compound 0.0001 µM): 96.8% [middle of 5 runs]; viability, T/C (compound 0.000316 µM): 94.2% [middle of 5 runs]; viability, T/C (compound 0.01 µM): 104% [middle of 5 runs]; IC50 (curve of compound): > 0.0316 µM and 0.028 µM
4 | CC(=O)OC12COC1CC(O)C1(C)C(=O)C(O)C3=C(C)C(OC(=O)C(O)C(NC(=O)OC(C)(C)C)c4ccccc4)CC(O)(C(OC(=O)c4ccccc4)C21)C3(C)C (stereo unspecified) + COc1cc2nc(C)nc(NC(C)c3cc(N)cc(C(F)(F)F)c3)c2cc1OC1CCOC1 | < 0.01 | < 0.01 | < 0.01 | < 0.01 | 24.6 | 35.8 | 17.3 | 26.8 | 29.3 | 23.1 | 38.4 | 24 | 29.3 | 27.6 | 18.7 | 24.7 | 13.4 | 29.2 | 16.4 | 21.3 | IC50 [29]: < 0.01 µM; viability, T/C [36]: 18.9%; viability, T/C [9]: 34.5%; viability, T/C [37]: 23.8%; viability, T/C [15]: 44%; viability, T/C [38]: 16.9%; viability, T/C [21]: 29.6%; viability, T/C [39]: 16.6%; viability, T/C [27]: 25.1%; viability, T/C [40]: 11.7%; viability, T/C [30]: 15%; viability, T/C [31]: 19.3%; viability, T/C [32]: 14.2%; viability, T/C [33]: 20.9%; viability, T/C [34]: 12.4%
5 | CCNC(=O)CC1N=C(c2ccc(Cl)cc2)c2cc(OC)ccc2-n2c(C)nnc21 (stereo unspecified) |  |  |  |  |  |  |  |  |  |  |  |  |  |  |  |  |  |  |  |  | viability, T/C (compound 10 µM): 83.8% [middle of 5 runs]; IC50 (curve of compound): > 10 µM
6 | CC1(C)CCC(CN2CCN(c3ccc(C(=O)NS(=O)(=O)c4ccc(NCC5CCOCC5)c([N+](=O)[O-])c4)c(Oc4cnc5[nH]ccc5c4)c3)CC2)=C(c2ccc(Cl)cc2)C1 + C=CC(=O)N1CCN(c2nc(=O)n(-c3c(C)ccnc3C(C)C)c3nc(-c4c(O)cccc4F)c(F)cc23)C(C)C1 | 2.02 | 2.19 | 2.07 | 1.77 | 90.5 | 99.3 | 115 | 95.9 | 93.6 | 86.6 | 103 | 94.7 | 102 | 108 | 81.2 | 104 | 76.4 | 103 | 102 | 81.1 | IC50 [29]: 1.9 µM; viability, T/C [9]: 20.8%; viability, T/C [10]: 6.39%; viability, T/C [15]: 29.2%; viability, T/C [16]: 5.85%; viability, T/C [21]: 21.3%; viability, T/C [22]: 1.24%; viability, T/C [27]: 18.2%; viability, T/C [28]: 2.96%; viability, T/C [30]: 89.7%; viability, T/C [31]: 98.1%; viability, T/C [32]: 107%; viability, T/C [33]: 110%; viability, T/C [34]: 9.64%; viability, T/C [35]: 1.37%
7 | CCN1CCN(Cc2ccc(Nc3ncc(F)c(-c4cc(F)c5nc(C)n(C(C)C)c5c4)n3)nc2)CC1 + COc1cc2nc(C)nc(NC(C)c3cc(N)cc(C(F)(F)F)c3)c2cc1OC1CCOC1 | > 1 | > 1 | > 1 | > 1 | 121 | 170 | 129 | 183 | 111 | 132 | 172 | 161 | 104 | 152 | 179 | 92.7 | 161 | 158 | 171 | 50.1 | IC50 [29]: 0.0319 µM; viability, T/C (second compound 0.1 µM, first compound 0.00316 µM): 99.6%; viability, T/C [36]: 111%; viability, T/C (second compound 0.316 µM, first compound 0.00316 µM): 99.3%; viability, T/C [37]: 109%; viability, T/C (second compound 1 µM, first compound 0.00316 µM): 103%; viability, T/C [38]: 109%; viability, T/C (second compound 3.16 µM, first compound 0.00316 µM): 118%; viability, T/C [39]: 142%; viability, T/C (second compound 10 µM, first compound 0.00316 µM): 82.9%; viability, T/C [40]: 87.8%; viability, T/C [30]: 38.3%; viability, T/C [31]: 31.5%; viability, T/C [32]: 5.53%; viability, T/C [33]: 1.46%
